In paper PMC10175687 (Frontiers in Pharmacology, 2023):
Like-named read-outs stand apart in the source and are kept apart here.

Tests used:
[1] = design: species or system human; settings: in vivo
Experimental: This was a prospective, open-label PPK study conducted in the ICU department of Peking University First Hospital. […] Pregnant and lactating patients, patients with special sites (endocardium, bone, joints, etc.) infections, or those who received any special treatment that may affect drug elimination, such as renal replacement therapy, were excluded.
The infusion duration was 30–60 min. […] Additionally, in 1/3 patients, 2 mL more blood sample was collected immediately after the 5th infusion; in the other 1/3 patients, 2 mL more blood sample was collected 1 h after the 5th dose, and in the remaining 1/3 patients, 2 mL more concentration sample was taken 1 h before the 6th dose. All blood samples were collected in blood collection tubes anticoagulated by ethylene diamine tetra acetic acid (EDTA) for concentration determination.
Blood samples were centrifuged within 12 h to obtain plasma. Then, 0.4 mL plasma samples were added with 0.05 mL internal standard solution (piperacillin sodium 0.15 mg/mL). Consequently, 0.6 mL acetonitrile was added, and the sample was vigorously shaken for 1 min and centrifuged at 12,000 r/min for 5 min. Then, 0.9 mL of the supernatant was transferred to a centrifuge tube, and 0.4 mL of dichloromethane was added. The solution was vigorously shaken for 1 min and centrifuged at 12,000 r/min for 5 min. The supernatant was then transferred into a vial for detection. HPLC detection conditions were as follows: Waters Symmetry C18 column (250 × 4.6 mm, 5 μm); mobile phase: 0.01 mol/L NaH2PO4 (pH = 3.3)-acetonitrile (75:25), isocratic elution; detection wavelength: 240 nm; flow rate: 1.0 mL/min; injection volume: 0.020 mL; column temperature: 35 °C ([Dong et al., 2011]). […] The above analytical method has passed the methodological verification. […] In terms of sensitivity, the signal-to-noise ratio (S/N) of the LOQ was >10. The relative standard deviations (RSDs) of the intra-day and inter-day precision of simulated plasma samples with high, medium and low concentrations were all less than 10%, and the intra-day and inter-day accuracies were 91.01%–101.13% and 92.98%–98.99%, respectively. […] The stability of simulated plasma samples with high, medium and low concentrations was good after being placed at room temperature for 4 h, frozen and thawed 3 times and stored at −80°C for 60 days, respectively, with the RSDs of tested samples all less than 10%.
The model was established in a stepwise manner. In the basic model screening process, one-, two- and three-compartment models with additive, proportional and mixed error were tested respectively, and the basic model was selected by the objective function value (OFV) and visual diagnostic plots ([Gao et al., 2020]). The model parameters were assumed to follow a log-normal distribution, and the inter-individual variability for each structural parameter was modeled using the following equation: Pi=PTV×Exp ηi (1) where P i represents parameters for the i th individual, P TV are the typical values of the parameters, and η i are random variables with zero mean and variance of ω^2.
Demographic and clinical characteristics that were considered plausible for affecting teicoplanin PK were tested as covariates, including sex, age, height, weight, BMI, ALT, AST, TBIL, DBIL, TP, ALB, WBC, Scr, GFR, and BUN. Individual PK estimates obtained from the selected structural model were firstly plotted against covariate values to assess relationships ([Byrne et al., 2017]). When a relationship between the covariate and the PK parameter was observed, the covariate was tested for inclusion into the PPK model. […]

[2] = design: method as in 2 sources, one per row (each row's own in cited_ref): ref Rowland, 1990; Rybak, 2006; Cavalcanti et al., 2010 ||| ref EMA., 2022; settings: cited from earlier work; for half-life: ref Rowland, 1990, Rybak, 2006, Cavalcanti et al., 2010
[3] = design: method as in Rowland, 1990; Rybak, 2006; Cavalcanti et al., 2010; settings: ref Rowland, 1990, Rybak, 2006, Cavalcanti et al., 2010, cited from earlier work

teicoplanin
Q, Estimate (RSE%) [1]: 3.12 (10.9) L/h | Q, bootstrap median (95% PI) [1]: 3.14 (2.62–3.90) L/h | V1, Estimate (RSE%) [1]: 20.1 (12.9) L | V1, bootstrap median (95% PI) [1]: 19.8 (16.1–26.2) L | V2, Estimate (RSE%) [1]: 101 (12.7) L | V2, bootstrap median (95% PI) [1]: 98.2 (77.5–122.2) L | θCL_GFR, Estimate (RSE%) [1]: 0.437 (23.8) | θCL_GFR, bootstrap median (95% PI) [1]: 0.441 (0.234–0.740) | CL, Estimate (RSE%) ([1]; iv): 1.03 (16.6) L/h | renal clearance ([2]; ref EMA., 2022): 0.13 to 0.2 mL/min/kg | total clearance ([2]; ref EMA., 2022): 0.167 to 0.233 mL/min/kg | half-life ([2]; teicoplanin): 100 to 170 h | dose administered recovered in feces (via bile excretion) ([2]; within 8 days after administration, ref EMA., 2022): 2.7% | unchanged teicoplanin excreted by the urinary route ([2]; within 16 days, ref EMA., 2022): 80% | plasma protein binding rate ([3]; teicoplanin): about 90%

CN[C@H](CC(C)C)C(=O)N[C@H]1C(=O)N[C@@H](CC(N)=O)C(=O)N[C@H]2C(=O)N[C@H]3C(=O)N[C@H](C(=O)N[C@H](C(=O)O)c4cc(O)cc(O)c4-c4cc3ccc4O)[C@H](O)c3ccc(c(Cl)c3)Oc3cc2cc(c3O[C@@H]2O[C@H](CO)[C@@H](O)[C@H](O)[C@H]2O[C@H]2C[C@](C)(N)[C@H](O)[C@H](C)O2)Oc2ccc(cc2Cl)[C@H]1O [vancomycin]
half-life ([2]; vancomycin, adults with normal renal function): 6 to 12 h | plasma protein binding rate ([3]; vancomycin): 30%–55%
